# Source: patent US8748624B2, “Picolinamido-propanoic acid derivatives useful as glucagon receptor antagonists” (Janssen Pharmaceutica NV, priority 2011, dated 2014)
# pKi: −log10 of the molar value.
# Molecular target: human GCGR (Homo sapiens (Human), UniProt P47871)
# Assay: Cellular functional assay, cAMP readout (glucagon-stimulated cAMP in HEK293 cells expressing human GCGR)
# Format: cell-based
# Conditions: hGluc-1 HEK cells, LANCE TR-FRET, IC50 converted to Ki, average if tested more than once
# Description: IC50 Values in Cellular Functional Assays: cAMP Readout
# Full-length human GCGR (Accession Number: NM000160) subcloned into pcDNA3.1 was stably transfected into HEK293 cells (hGluc-1 HEK) and maintained under G418 selection (500 μg/mL). Cell cultures were maintained in DMEM/F12 media supplemented with 10% FBS and 1% GlutaMax. Glucagon stimulated cAMP was quantified using LANCE technology as per manufacturer instructions. On the day of the experiment, spent media was removed and cells were washed with Hank's Buffered Saline solution (HBSS) and cells were harvested with non-enzymatic cell dissociation solution, then washed once with HBSS. Cells were re-suspended in stimulation buffer at a concentration of 0.83×10^6 cells/ml and cAMP detection antibody was added. 6 μl/well of this solution was then dispensed in a 384 well plate (cell density 5000 cells/well). Test compound was serially diluted in DMSO and 50 nl were dispensed on top of the cell solution and allowed to incubate for 30 minutes. 6 μl of a 2× glucagon solution (final concentration in assay […]) was then added and the reaction was terminated after 5 minutes with the addition of detection mix. The mixture was incubated, protected from light for 1.5 h. cAMP levels were quantified by TR-FRET in an EnVision instrument against a known standard. IC50's were generated by using a non-linear regression macro driven in Excel and converted to K, values.
# Sequence of human GCGR (P47871 26-477): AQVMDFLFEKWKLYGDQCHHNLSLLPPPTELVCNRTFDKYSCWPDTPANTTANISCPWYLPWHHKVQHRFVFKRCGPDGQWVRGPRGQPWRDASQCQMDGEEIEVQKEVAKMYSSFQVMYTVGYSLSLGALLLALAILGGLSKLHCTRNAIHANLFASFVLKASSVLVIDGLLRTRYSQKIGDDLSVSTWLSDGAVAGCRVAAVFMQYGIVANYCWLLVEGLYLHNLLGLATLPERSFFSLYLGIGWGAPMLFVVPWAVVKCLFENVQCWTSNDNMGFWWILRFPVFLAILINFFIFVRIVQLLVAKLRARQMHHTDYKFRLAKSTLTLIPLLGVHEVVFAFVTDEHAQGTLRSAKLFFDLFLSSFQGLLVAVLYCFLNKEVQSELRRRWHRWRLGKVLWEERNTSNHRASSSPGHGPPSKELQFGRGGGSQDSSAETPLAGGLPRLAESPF
row,pKi,Compound
1,6.55,"O=C(O)CCNC(=O)c1ccc(-c2cc(Cl)ccc2CNc2ccc(-c3ccc(F)cc3F)cc2)cn1 [Compound 18, 3-(5-(5-chloro-2-(((2′,4′-difluoro-[1,1′-biphenyl]-4-yl)amino)methyl)phenyl)picolinamido)propanoic acid]"
2,6.66,O=C(O)CCNC(=O)c1ccc(-c2cc(C(F)(F)F)ccc2CNc2ccc(-c3ccc(Cl)cc3C(F)(F)F)cc2)cn1 [Compound 25]
3,< 4.70,"COc1ccc(CNc2ccc(-c3ccc(Cl)cc3)cc2)c(-c2ccc(C(=O)NCCC(=O)O)nc2)c1 [Compound 45, 3-(5-(2-(((4′-chloro-[1,1′-biphenyl]-4-yl)amino)methyl)-5-methoxyphenyl)picolinamido)propanoic acid]"
4,< 4.70,"COc1ccc(CNc2ccc(-c3ccc(Cl)cc3Cl)cc2)c(-c2ccc(C(=O)NCCC(=O)O)nc2)c1 [Compound 46, 3-(5-(2-(((2′,4′-dichloro-[1,1′-biphenyl]-4-yl)amino)methyl)-5-methoxyphenyl)picolinamido)propanoic acid]"
5,< 4.70,"COc1ccc(CNc2ccc(-c3ccc(C(F)(F)F)cc3)cc2)c(-c2ccc(C(=O)NCCC(=O)O)nc2)c1 [Compound 47, 3-(5-(5-methoxy-2-(((4′-(trifluoromethyl)-[1,1′-biphenyl]-4-yl)amino)methyl)phenyl)picolinamido)propanoic acid]"
6,< 4.70,"COc1ccc(CNc2ccc(-c3ccc(OC(F)(F)F)cc3)cc2)c(-c2ccc(C(=O)NCCC(=O)O)nc2)c1 [Compound 48, 3-(5-(5-methoxy-2-(((4′-(trifluoromethoxy)-[1,1′-biphenyl]-4-yl)amino)methyl)phenyl)picolinamido)propanoic acid]"
7,< 4.70,"COc1ccc(CNc2ccc(-c3ccc(C(C)(C)C)cc3)cc2)c(-c2ccc(C(=O)NCCC(=O)O)nc2)c1 [Compound 49, 3-(5-(2-(((4′-(tert-butyl)-[1,1′-biphenyl]-4-yl)amino)methyl)-5-methoxyphenyl)picolinamido)propanoic acid]"
8,< 4.70,"COc1ccc(CNc2ccc(-c3cccc(OC(F)(F)F)c3)cc2)c(-c2ccc(C(=O)NCCC(=O)O)nc2)c1 [Compound 50, 3-(5-(5-methoxy-2-(((3′-(trifluoromethoxy)-[1,1′-biphenyl]-4-yl)amino)methyl)phenyl)picolinamido)propanoic acid]"
9,7.84,"O=C(O)CCNC(=O)c1ccc(-c2cc(C(F)(F)F)cc(C(F)(F)F)c2CNc2ccc(-c3ccc(Cl)cc3)c(Cl)c2)cn1 [Compound 76, 3-(5-(2-(((2,4′-dichloro-[1,1′-biphenyl]-4-yl)amino)methyl)-3,5-bis(trifluoromethyl)phenyl)picolinamido)propanoic acid]"
10,8.00,"Cc1cc(Cl)ccc1-c1ccc(NCc2c(-c3ccc(C(=O)NCCC(=O)O)nc3)cc(C(F)(F)F)cc2C(F)(F)F)cc1 [Compound 81, 3-(5-(2-(((4′-chloro-2′-methyl-[1,1′-biphenyl]-4-yl)amino)methyl)-3,5-bis(trifluoromethyl)phenyl)picolinamido)propanoic acid]"
11,7.85,"Cc1cc(C(F)(F)F)ccc1-c1ccc(NCc2c(-c3ccc(C(=O)NCCC(=O)O)nc3)cc(C(F)(F)F)cc2C(F)(F)F)cc1 [Compound 83, 3-(5-(2-(((2′-methyl-4′-(trifluoromethyl)-[1,1′-biphenyl]-4-yl)amino)methyl)-3,5-bis(trifluoromethyl)phenyl)picolinamido)propanoic acid]"
12,7.44,"O=C(O)CCNC(=O)c1ccc(-c2cc(C(F)(F)F)cc(C(F)(F)F)c2CNc2ccc(-c3cccc(Cl)c3Cl)cc2)cn1 [Compound 84, 3-(5-(2-(((2′,3′-dichloro-[1,1′-biphenyl]-4-yl)amino)methyl)-3,5-bis(trifluoromethyl)phenyl)picolinamido)propanoic acid]"
13,7.49,"O=C(O)CCNC(=O)c1ccc(-c2cc(C(F)(F)F)cc(C(F)(F)F)c2CNc2ccc(-c3c(Cl)cccc3Cl)cc2)cn1 [Compound 85, 3-(5-(2-(((2′,6′-dichloro-[1,1′-biphenyl]-4-yl)amino)methyl)-3,5-bis(trifluoromethyl)phenyl)picolinamido)propanoic acid]"
14,7.46,"Cc1cc(NCc2c(-c3ccc(C(=O)NCCC(=O)O)nc3)cc(C(F)(F)F)cc2C(F)(F)F)ccc1-c1ccc(Cl)cc1 [Compound 86, 3-(5-(2-(((4′-chloro-2-methyl-[1,1′-biphenyl]-4-yl)amino)methyl)-3,5-bis(trifluoromethyl)phenyl)picolinamido)propanoic acid]"
15,7.76,"O=C(O)CCNC(=O)c1ccc(-c2cc(C(F)(F)F)cc(C(F)(F)F)c2CNc2ccc(-c3ccc(Cl)cc3Cl)cc2)cn1 [Compound 87, 3-(5-(2-(((2′,4′-dichloro-[1,1′-biphenyl]-4-yl)amino)methyl)-3,5-bis(trifluoromethyl)phenyl)picolinamido)propanoic acid]"
16,6.71,"N#Cc1cc(NCc2ccc(Cl)cc2-c2ccc(C(=O)NCCC(=O)O)nc2)ccc1-c1ccc(Cl)c(C(F)(F)F)c1 [Compound 98, 3-(5-(5-chloro-2-(((4′-chloro-2-cyano-3′-(trifluoromethyl)-[1,1′-biphenyl]-4-yl)amino)methyl)phenyl)picolinamido)propanoic acid]"
17,7.18,"N#Cc1cc(NCc2ccc(Cl)cc2-c2ccc(C(=O)NCCC(=O)O)nc2)ccc1-c1ccc(Cl)cc1Cl [Compound 99, 3-(5-(5-chloro-2-(((2′,4′-dichloro-2-cyano-[1,1′-biphenyl]-4-yl)amino)methyl)phenyl)picolinamido)propanoic acid]"
18,6.87,"N#Cc1cc(NCc2ccc(Cl)cc2-c2ccc(C(=O)NCCC(=O)O)nc2)ccc1-c1ccc(F)c(C(F)(F)F)c1 [Compound 100, 3-(5-(5-chloro-2-(((2-cyano-4′-fluoro-3′-(trifluoromethyl)-[1,1′-biphenyl]-4-yl)amino)methyl)phenyl)picolinamido)propanoic acid]"
19,7.02,"N#Cc1cc(NCc2ccc(Cl)cc2-c2ccc(C(=O)NCCC(=O)O)nc2)ccc1-c1cccc(C(F)(F)F)c1Cl [Compound 101, 3-(5-(5-chloro-2-(((2′-chloro-2-cyano-3′-(trifluoromethyl)-[1,1′-biphenyl]-4-yl)amino)methyl)phenyl)picolinamido)propanoic acid]"
20,7.22,"Cc1cc(Cl)ccc1-c1ccc(NCc2ccc(C(F)(F)F)cc2-c2ccc(C(=O)NCCC(=O)O)nc2)cc1C(F)(F)F [Compound 119, 3-(5-(2-(((4′-chloro-2′-methyl-2-(trifluoromethyl)-[1,1′-biphenyl]-4-yl)amino)methyl)-5-(trifluoromethyl)phenyl)picolinamido)propanoic acid]"
21,7.43,"Cc1cc(C(F)(F)F)ccc1-c1ccc(NCc2ccc(C(F)(F)F)cc2-c2ccc(C(=O)NCCC(=O)O)nc2)cc1C(F)(F)F [Compound 120, 3-(5-(2-(((2′-methyl-2,4′-bis(trifluoromethyl)-[1,1′-biphenyl]-4-yl)amino)methyl)-5-(trifluoromethyl)phenyl)picolinamido)propanoic acid]"
22,7.00,"O=C(O)CCNC(=O)c1ccc(-c2cc(C(F)(F)F)ccc2CNc2ccc(-c3ccc(F)c(C(F)(F)F)c3)c(C(F)(F)F)c2)cn1 [Compound 121, 3-(5-(2-(((4′-fluoro-2,3′-bis(trifluoromethyl)-[1,1′-biphenyl]-4-yl)amino)methyl)-5-(trifluoromethyl)phenyl)picolinamido)propanoic acid]"
23,7.07,"O=C(O)CCNC(=O)c1ccc(-c2cc(C(F)(F)F)ccc2CNc2ccc(-c3ccc(Cl)cc3Cl)c(C(F)(F)F)c2)cn1 [Compound 122, 3-(5-(2-(((2′,4′-dichloro-2-(trifluoromethyl)-[1,1′-biphenyl]-4-yl)amino)methyl)-5-(trifluoromethyl)phenyl)picolinamido)propanoic acid]"
24,6.96,"O=C(O)CCNC(=O)c1ccc(-c2cc(C(F)(F)F)ccc2CNc2ccc(-c3ccc(Cl)cc3)c(C(F)(F)F)c2)cn1 [Compound 123, 3-(5-(2-(((4′-chloro-2-(trifluoromethyl)-[1,1′-biphenyl]-4-yl)amino)methyl)-5-(trifluoromethyl)phenyl)picolinamido)propanoic acid]"
25,6.55,"CC(C)(C)c1ccc(-c2ccc(NCc3ccc(C(F)(F)F)cc3-c3ccc(C(=O)NCCC(=O)O)nc3)cc2C(F)(F)F)cc1 [Compound 124, 3-(5-(2-(((4′-(tert-butyl)-2-(trifluoromethyl)-[1,1′-biphenyl]-4-yl)amino)methyl)-5-(trifluoromethyl)phenyl)picolinamido)propanoic acid]"
26,6.69,"O=C(O)CCNC(=O)c1ccc(-c2cc(C(F)(F)F)ccc2CNc2ccc(-c3ccc(F)cc3F)c(C(F)(F)F)c2)cn1 [Compound 125, 3-(5-(2-(((2′,4′-difluoro-2-(trifluoromethyl)-[1,1′-biphenyl]-4-yl)amino)methyl)-5-(trifluoromethyl)phenyl)picolinamido)propanoic acid]"
27,< 5.28,"O=C(O)CCNC(=O)c1ccc(-c2cc(C(F)(F)F)ccc2CNc2ccc(-c3ccc(Cl)cc3F)c(C(F)(F)F)c2)cn1 [Compound 126, 3-(5-(2-(((4′-chloro-2′-fluoro-2-(trifluoromethyl)-[1,1′-biphenyl]-4-yl)amino)methyl)-5-(trifluoromethyl)phenyl)picolinamido)propanoic acid]"
